PubChem BioAssay AID1963826 (Molecular Pharmacology Branch, DTP, NCI, 2024)
pIC50: −log10 of the molar value.

System: 926638-142-R-J1-PDC complex spheroid viability
Assay: Anticancer human tumor 926638-142-R-J1-PDC patient-derived endometrial carcinoma cell line growth inhibition [POLQ]
Details: for pIC50: curve of first compound; for viability, T/C: stronger effect = lower value
Method in brief: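 Patient-derived tumour cells were co-cultured with HUVEC and mesenchymal stem cells as multicellular spheroids at 37 °C. They were treated with POLQ inhibitors (novobiocin, ART-558, RP6685) alone or combined with other agents. Top concentrations were at or near clinical Cmax (otherwise 10 microM; SN-38 at 1 microM), decreasing in half-log steps.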

[1] = second compound 0.0316 µM, first compound 0.0316 µM
[2] = second compound 0.0316 µM, first compound 0.1 µM
[3] = second compound 0.0316 µM, first compound 0.316 µM
[4] = second compound 0.0316 µM, first compound 1 µM
[5] = second compound 0.0316 µM, first compound 3.16 µM
[6] = second compound 0.0316 µM, first compound 10 µM
[7] = second compound 0.1 µM, first compound 0.0316 µM
[8] = second compound 0.1 µM, first compound 0.1 µM
[9] = second compound 0.1 µM, first compound 0.316 µM
[10] = second compound 0.1 µM, first compound 1 µM
[11] = second compound 0.1 µM, first compound 3.16 µM
[12] = second compound 0.1 µM, first compound 10 µM
[13] = second compound 0.316 µM, first compound 0.0316 µM
[14] = second compound 0.316 µM, first compound 0.1 µM
[15] = second compound 0.316 µM, first compound 0.316 µM
[16] = second compound 0.316 µM, first compound 1 µM
[17] = second compound 0.316 µM, first compound 3.16 µM
[18] = second compound 0.316 µM, first compound 10 µM
[19] = second compound 1 µM, first compound 0.0316 µM
[20] = second compound 1 µM, first compound 0.1 µM
[21] = second compound 1 µM, first compound 0.316 µM
[22] = second compound 1 µM, first compound 1 µM
[23] = second compound 1 µM, first compound 3.16 µM
[24] = second compound 1 µM, first compound 10 µM
[25] = second compound 3.16 µM, first compound 0.0316 µM
[26] = second compound 3.16 µM, first compound 0.1 µM
[27] = second compound 3.16 µM, first compound 0.316 µM
[28] = second compound 3.16 µM, first compound 1 µM
[29] = second compound 3.16 µM, first compound 3.16 µM
[30] = second compound 3.16 µM, first compound 10 µM
[31] = second compound 10 µM, first compound 0.0316 µM
[32] = second compound 10 µM, first compound 0.1 µM
[33] = second compound 10 µM, first compound 0.316 µM
[34] = second compound 10 µM, first compound 1 µM
[35] = second compound 10 µM, first compound 3.16 µM
[36] = second compound 10 µM, first compound 10 µM
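Further: spheroids exposed to drugs for one week before readout.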
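Wherever viability, T/C is given: percent viability relative to DMSO vehicle control wells set as 100%.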

C#Cc1c(F)ccc2cc(O)cc(-c3ncc4c(N5CC6CCC(C5)N6)nc(OCC56CCCN5CC(F)C6)nc4c3F)c12 (centres undefined) + Cc1cccc(N(C)C(=O)C2C(O)CCN2c2nc(C)cc(C(F)(F)F)c2C#N)c1 showed a pIC50 (second compound 0.0316 µM) of less than 5.00, a pIC50 (second compound 0.1 µM) of less than 5.00 and a pIC50 (second compound 0.316 µM) of less than 5.00. It also gave a pIC50 (second compound 1 µM) of less than 5.00, a pIC50 (second compound 3.16 µM) of less than 5.00 and a pIC50 (second compound 10 µM) of less than 5.00. For the same compound, the viability, T/C [1] was 90.9%, the viability, T/C [2] was 76.7% and the viability, T/C [3] was 69.9%. For the same compound, the viability, T/C [4] was 63.8%, the viability, T/C [5] was 58.3% and the viability, T/C [6] was 56.9%. The viability, T/C [7] was 87.2%, the viability, T/C [8] was 96.2% and the viability, T/C [9] was 84.6%. It also gave a viability, T/C [10] of 71.9%, a viability, T/C [11] of 60.5% and a viability, T/C [12] of 63.9%. For the same compound, the viability, T/C [13] was 86.2%, the viability, T/C [14] was 75.1% and the viability, T/C [15] was 78.2%. For the same compound, the viability, T/C [16] was 71.8%, the viability, T/C [17] was 54% and the viability, T/C [18] was 61.7%. The viability, T/C [19] was 95.2%, the viability, T/C [20] was 76% and the viability, T/C [21] was 66.9%. For the same compound, the viability, T/C [22] was 76.2%, the viability, T/C [23] was 70.9% and the viability, T/C [24] was 52.5%. The viability, T/C [25] was 81.1%, the viability, T/C [26] was 84.3% and the viability, T/C [27] was 89.2%. It also gave a viability, T/C [28] of 58.5%, a viability, T/C [29] of 60.1% and a viability, T/C [30] of 53.5%. For the same compound, the viability, T/C [31] was 84.8%, the viability, T/C [32] was 79% and the viability, T/C [33] was 67.2%. The viability, T/C [34] was 71.8%, the viability, T/C [35] was 58.4% and the viability, T/C [36] was 66.5%.
CCc1cc2c(N3CCc4c(cc(Cn5ccnc5)cc4-c4cn(C)nc4C(F)(F)F)C3=O)ccnc2c(OC)n1 + COC1C(OC(N)=O)C(O)C(Oc2ccc3c(O)c(NC(=O)c4ccc(O)c(CC=C(C)C)c4)c(=O)oc3c2C)OC1(C)C showed a pIC50 (second compound 0.0316 µM) of 6.62, a pIC50 (second compound 0.1 µM) of 6.42 and a pIC50 (second compound 0.316 µM) of 6.48. The pIC50 (second compound 1 µM) was 6.59, the pIC50 (second compound 3.16 µM) was 6.65 and the pIC50 (second compound 10 µM) was 6.52. For the same compound, the viability, T/C [1] was 81.8%, the viability, T/C [2] was 60.3% and the viability, T/C [3] was 46.7%. The viability, T/C [4] was 38.5%, the viability, T/C [5] was 28% and the viability, T/C [6] was 25.9%. It also gave a viability, T/C [7] of 81.9%, a viability, T/C [8] of 63.8% and a viability, T/C [9] of 54.2%. The viability, T/C [10] was 40.9%, the viability, T/C [11] was 25.8% and the viability, T/C [12] was 22.7%. For the same compound, the viability, T/C [13] was 77.7%, the viability, T/C [14] was 57.7% and the viability, T/C [15] was 52.6%. It also gave a viability, T/C [16] of 43%, a viability, T/C [17] of 28.6% and a viability, T/C [18] of 26.6%. It also gave a viability, T/C [19] of 91.7%, a viability, T/C [20] of 60.2% and a viability, T/C [21] of 46.5%. For the same compound, the viability, T/C [22] was 45%, the viability, T/C [23] was 22.5% and the viability, T/C [24] was 26.1%. It also gave a viability, T/C [25] of 85.2%, a viability, T/C [26] of 54.2% and a viability, T/C [27] of 48.5%. The viability, T/C [28] was 38.5%, the viability, T/C [29] was 28.1% and the viability, T/C [30] was 21.1%. For the same compound, the viability, T/C [31] was 79.1%, the viability, T/C [32] was 64.5% and the viability, T/C [33] was 47%. The viability, T/C [34] was 40.1%, the viability, T/C [35] was 32% and the viability, T/C [36] was 25.9%.
